From patent EP2970215B1, “PYRROLIDINE DERIVATIVES, PHARMACEUTICAL COMPOSITIONS CONTAINING THEM, AND THEIR USE IN THERAPY” (AbbVie Deutschland GmbH & Co. KG, priority 2013, dated 2014)

Target: T1, human GlyT1c transporter (Homo sapiens, UniProt P48067)
T1 construct: expressed in transfected cells; host or cells: CHO cells (recombinant; line hGlyT1c_5_CHO is named for the uptake assay)
T1 sequence (P48067 1-706): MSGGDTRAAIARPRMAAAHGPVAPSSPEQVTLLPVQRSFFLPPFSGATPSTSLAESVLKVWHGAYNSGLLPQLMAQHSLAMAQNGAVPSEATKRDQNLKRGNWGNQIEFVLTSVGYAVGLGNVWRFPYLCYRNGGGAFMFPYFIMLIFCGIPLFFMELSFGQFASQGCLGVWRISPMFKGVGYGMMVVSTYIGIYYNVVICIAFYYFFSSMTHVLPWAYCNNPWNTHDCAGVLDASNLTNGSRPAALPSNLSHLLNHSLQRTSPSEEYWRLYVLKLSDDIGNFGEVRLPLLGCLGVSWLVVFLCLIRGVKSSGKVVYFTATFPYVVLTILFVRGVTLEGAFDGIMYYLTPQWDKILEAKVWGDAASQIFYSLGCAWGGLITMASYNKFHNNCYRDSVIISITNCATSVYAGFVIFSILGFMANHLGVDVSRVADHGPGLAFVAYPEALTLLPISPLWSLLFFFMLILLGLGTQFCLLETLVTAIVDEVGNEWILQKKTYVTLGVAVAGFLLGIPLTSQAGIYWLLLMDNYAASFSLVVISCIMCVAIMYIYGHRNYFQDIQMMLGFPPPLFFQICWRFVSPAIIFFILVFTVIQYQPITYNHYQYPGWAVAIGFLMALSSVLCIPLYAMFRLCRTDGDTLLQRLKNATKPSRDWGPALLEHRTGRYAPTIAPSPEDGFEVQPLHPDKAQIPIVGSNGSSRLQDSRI
Assay: Radioligand binding assay using recombinant CHO cell membranes expressing human GlyT1
Conditions: radioligand binding to human GlyT1c transporter-expressing membranes
Text: 2. Radioligand binding assays using recombinant CHO cell membranes expressing human GlyT1: […]

| Structure (SMILES) | Ki |
| --- | --- |
| Cc1cc(N[C@H]2CN(S(=O)(=O)c3cn(C)cn3)C[C@@H]2c2ccccc2)ncn1 [Example 637, 6-methyl-N-{(3R,4S)-1-[(1-methyl-1H-imidazol-4-yl)sulfonyl]-4-phenylpyrrolidin-3-yl}pyrimidin-4-amine] | ≤ 10 µM |
| Cc1ccc(N[C@H]2CN(S(=O)(=O)c3cn(C)cn3)C[C@@H]2c2ccc(F)cc2)cc1C(F)(F)F [Example 638, (3R,4S)-4-(4-fluorophenyl)-1-[(1-methyl-1H-imidazol-4-yl)sulfonyl]-N-[4-methyl-3-(trifluoromethyl)phenyl]pyrrolidin-3-amine] | ≤ 1 µM |
| Cn1cnc(S(=O)(=O)N2C[C@H](Nc3ccc(C#N)c(C(F)(F)F)c3)[C@@H](c3ccc(F)cc3)C2)c1 [Example 639, 4-({(3R,4S)-4-(4-fluorophenyl)-1-[(1-methyl-1H-imidazol-4-yl)sulfonyl]pyrrolidin-3-yl}amino)-2-(trifluoromethyl)benzonitrile] | ≤ 10 µM |
| CCCn1cc([C@H]2CN(S(=O)(=O)c3cn(C)cn3)C[C@@H]2c2ccc(F)cc2)nn1 [Example 640, 4-{(3R,4S)-4-(4-fluorophenyl)-1-[(1-methyl-1H-imidazol-4-yl)sulfonyl]pyrrolidin-3-yl}-1-propyl-1H-1,2,3-triazole] | ≤ 1 µM |
| Cn1cnc(S(=O)(=O)N2C[C@H](NC(=O)COc3ccc(F)cc3)[C@@H](c3ccc(F)cc3)C2)c1 [Example 644, 2-(4-fluorophenoxy)-N-{(3R,4S)-4-(4-fluorophenyl)-1-[(1-methyl-1H-imidazol-4-yl)sulfonyl]pyrrolidin-3-yl}acetamide] | ≤ 10 µM |
| COCCCCN[C@H]1CN(S(=O)(=O)c2cn(C)cn2)C[C@@H]1c1ccccc1 [Example 647, (3R,4S)-N-(4-methoxybutyl)-1-[(1-methyl-1H-imidazol-4-yl)sulfonyl]-4-phenylpyrrolidin-3-amine] | ≤ 10 µM |
| CCC(CCCN[C@H]1CN(S(=O)(=O)c2cn(C)cn2)C[C@@H]1c1ccccc1)OC (stereo partly drawn) [Example 648, (3R,4S)-N-(4-methoxyhexyl)-1-[(1-methyl-1H-imidazol-4-yl)sulfonyl]-4-phenylpyrrolidin-3-amine] | ≤ 10 µM |
| COc1ccc(N[C@H]2CN(S(=O)(=O)c3cn(C)cn3)C[C@@H]2c2ccccc2)cc1C(F)(F)F [Example 653, (3R,4S)-N-[4-methoxy-3-(trifluoromethyl)phenyl]-1-[(1-methyl-1H-imidazol-4-yl)sulfonyl]-4-phenylpyrrolidin-3-amine] | ≤ 10 µM |
| Cn1cnc(S(=O)(=O)N2C[C@H](Nc3ccc4sccc4c3)[C@@H](c3ccccc3)C2)c1 [Example 654, (3R,4S)-N-(1-benzothiophen-5-yl)-1-[(1-methyl-1H-imidazol-4-yl)sulfonyl]-4-phenylpyrrolidin-3-amine] | ≤ 1 µM |
| Cn1cnc(S(=O)(=O)N2C[C@H](Nc3ccc4occc4c3)[C@@H](c3ccccc3)C2)c1 [Example 660, (3R,4S)-N-(1-benzofuran-5-yl)-1-[(1-methyl-1H-imidazol-4-yl)sulfonyl]-4-phenylpyrrolidin-3-amine] | ≤ 1 µM |
| COC(=O)CCCC(=O)N[C@H]1CN(S(=O)(=O)c2cn(C)cn2)C[C@@H]1c1ccc(F)cc1 [Example 662, methyl 5-({(3R,4S)-4-(4-fluorophenyl)-1-[(1-methyl-1H-imidazol-4-yl)sulfonyl]pyrrolidin-3-yl}amino)-5-oxopentanoate] | ≤ 10 µM |
| COCCOCCN[C@H]1CN(S(=O)(=O)c2cn(C)cn2)C[C@@H]1c1ccccc1 [Example 666, (3R,4S)-N-[2-(2-methoxyethoxy)ethyl]-1-[(1-methyl-1H-imidazol-4-yl)sulfonyl]-4-phenylpyrrolidin-3-amine] | ≤ 10 µM |

Now from value to compound:

| Ki | Structure (SMILES) |
| --- | --- |
| ≤ 0.01 µM | Cn1cnc(S(=O)(=O)N2C[C@H](Nc3ccc(F)c(OC(F)(F)F)c3)[C@@H](c3ccccc3)C2)c1 [Example 646, (3R,4S)-N-[4-fluoro-3-(trifluoromethoxy)phenyl]-1-[(1-methyl-1H-imidazol-4-yl)sulfonyl]-4-phenylpyrrolidin-3-amine] |
| ≤ 0.1 µM | CCCC1CC1CN[C@H]1CN(S(=O)(=O)c2cn(C)cn2)C[C@@H]1c1ccccc1 (stereo partly drawn) [Example 649, (3R,4S)-1-[(1-methyl-1H-imidazol-4-yl)sulfonyl]-4-phenyl-N-[(2-propylcyclopropyl)methyl]pyrrolidin-3-amine] |
| ≤ 1 µM | CCCC1CC1CN[C@H]1CN(S(=O)(=O)c2cn(C)cn2)C[C@@H]1c1ccccc1 (stereo partly drawn) [Example 650, (3R,4S)-1-[(1-methyl-1H-imidazol-4-yl)sulfonyl]-4-phenyl-N-[(2-propylcyclopropyl)methyl]pyrrolidin-3-amine] |
| ≤ 1 µM | Cn1cnc(S(=O)(=O)N2C[C@H](Nc3ccc4c(c3)CCC4)[C@@H](c3ccccc3)C2)c1 [Example 655, (3R,4S)-N-(2,3-dihydro-1H-inden-5-yl)-1-[(1-methyl-1H-imidazol-4-yl)sulfonyl]-4-phenylpyrrolidin-3-amine] |
| ≤ 1 µM | Cn1cnc(S(=O)(=O)N2C[C@H](Nc3ccc(C(F)(F)F)c(C(F)(F)F)c3)[C@@H](c3ccccc3)C2)c1 [Example 656, (3R,4S)-N-[3,4-bis(trifluoromethyl)phenyl]-1-[(1-methyl-1H-imidazol-4-yl)sulfonyl]-4-phenylpyrrolidin-3-amine] |
| ≤ 1 µM | Cn1cnc(S(=O)(=O)N2C[C@H](Nc3ccc4c(c3)CCCC4)[C@@H](c3ccccc3)C2)c1 [Example 657, (3R,4S)-1-[(1-methyl-1H-imidazol-4-yl)sulfonyl]-4-phenyl-N-(5,6,7,8-tetrahydronaphthalen-2-yl)pyrrolidin-3-amine] |
| ≤ 1 µM | Cn1cnc(S(=O)(=O)N2C[C@H](Nc3ccc4c(c3)CCCO4)[C@@H](c3ccccc3)C2)c1 [Example 658, (3R,4S)-N-(3,4-dihydro-2H-chromen-6-yl)-1-[(1-methyl-1H-imidazol-4-yl)sulfonyl]-4-phenylpyrrolidin-3-amine] |
| ≤ 0.1 µM | Cn1cnc(S(=O)(=O)N2C[C@H](C(=O)NCc3ccc(C(F)(F)F)cc3Cl)[C@@H](c3ccc(F)cc3)C2)c1 [Example 663, (3R,4S)-N-[2-chloro-4-(trifluoromethyl)benzyl]-4-(4-fluorophenyl)-1-[(1-methyl-1H-imidazol-4-yl)sulfonyl]pyrrolidine-3-carboxamide] |
| ≤ 0.1 µM | CCCCCN[C@H]1CN(S(=O)(=O)c2cn(C)cn2)C[C@@H]1c1ccc(F)cc1 [Example 664, (3R,4S)-4-(4-fluorophenyl)-1-[(1-methyl-1H-imidazol-4-yl)sulfonyl]-N-pentylpyrrolidin-3-amine] |
| ≤ 0.1 µM | Cn1cnc(S(=O)(=O)N2C[C@H](NCCOc3ccc(F)cc3)[C@@H](c3ccc(F)cc3)C2)c1 [Example 667, (3R,4S)-N-[2-(4-fluorophenoxy)ethyl]-4-(4-fluorophenyl)-1-[(1-methyl-1H-imidazol-4-yl)sulfonyl]pyrrolidin-3-amine] |
| ≤ 0.1 µM | Cc1cc(N[C@H]2CN(S(=O)(=O)c3cn(C)cn3)C[C@@H]2c2ccccc2)ccc1Cl [Example 669, (3R,4S)-N-(4-chloro-3-methylphenyl)-1-[(1-methyl-1H-imidazol-4-yl)sulfonyl]-4-phenylpyrrolidin-3-amine] |
| ≤ 0.01 µM | Cn1cnc(S(=O)(=O)N2C[C@H](Nc3cccc(OCC(F)(F)F)c3)[C@@H](c3ccccc3)C2)c1 [Example 670, (3R,4S)-1-[(1-methyl-1H-imidazol-4-yl)sulfonyl]-4-phenyl-N-[3-(2,2,2-trifluoroethoxy)phenyl]pyrrolidin-3-amine] |
